Laboratory results as given in patent US8575114B2, “SGLT-2 inhibitors, methods of making them, and uses thereof” (Albany Molecular Research, Inc., priority 2010, dated 2013).

What was measured:
hSGLT-2 = hSGLT-2 (Homo sapiens (Human), UniProt P31639); assay: [14C]AMG uptake inhibition in CHO-K1/hSGLT-2 cells; assay type: cell-based; conditions: 4 μM [14C]AMG, 3-hr incubation at 37° C., read-out: SGLT2, IC50
Procedure: The inhibitory activity of the compounds of this invention against the SGLT-1 or SGLT-2 transporters can be determined by the following assay. […] CHO-K1 cells transfected with pcDNA3.1 (Invitrogen Corp., Carlsbad, Calif.) containing either the full-length hSGLT-1 or hSGLT-2 using Lipofectamine 2000 (Invitrogen Corp., Carlsbad, Calif.) were selected for stable incorporation of the construct by resistance to the selective pressure of Geneticin (450 μg/ml; Invitrogen Corp., Carlsbad, Calif.). Monoclonal cell lines isolated by minimal dilution were screened for uptake activity of radiolabled methyl α-D-glucopyranoside ([^14C]AMG), a non-metabolizable glucose analogue, and a single clone for each transporter was selected for maximal transporter activity to be used for evaluating the inhibitory activity of the compounds of this invention. In brief, 35,000 cells (CHO-K1/hSGLT-1 or CHO-K1/hSGLT-2) were plated per well of a black tissue culture treated 96-well plate in Ham's F12 media supplemented with 10% heat inactivated FBS and allowed to attached overnight at 37° C. and 5% CO2. Compounds were serially diluted 3-fold in DMSO generating a nine (9) data point dose response curve for each compound. Two replicates were performed per determination. […] Following a 3-hr incubation at 37° C. and 5% CO2, the uptake reaction was stopped by washing the cells three (3) times with ice-cold D-PBS and then lysing the cells with 50 μl of Microscint-20. […] Data were fit to an empirical four-parameter model to determine the inhibitor concentration at half-maximal response (IC50). The assay window was established by control wells incubated with [^14C]AMG in the presence or absence of sodium. A dose response curve for phlorizin was generated on every plate as a positive control.

hSGLT-1 = hSGLT-1 (Homo sapiens (Human), UniProt P13866); assay: [14C]AMG uptake inhibition in CHO-K1/hSGLT-1 cells; assay type: cell-based; conditions: 4 μM [14C]AMG, 3-hr incubation at 37° C., read-out: SGLT-1, IC50
Text: The inhibitory activity of the compounds of this invention against the SGLT-1 or SGLT-2 transporters can be determined by the following assay. The cDNAs for the human genes of SGLT-1 (SLC5A1—solute carrier family 5 sodium/glucose cotransporter member 1; Accession #NM_000343.1) or SGLT-2 (SLC5A2—member 2; Accession #NM_003041.2) were synthesized (OriGene Technologies, Inc.) and sub-cloned into the mammalian expression vector, pcDNA3.1 (Invitrogen Corp., Carlsbad, Calif.) using standard molecular biology techniques. CHO-K1 cells transfected with pcDNA3.1 (Invitrogen Corp., Carlsbad, Calif.) containing either the full-length hSGLT-1 or hSGLT-2 using Lipofectamine 2000 (Invitrogen Corp., Carlsbad, Calif.) were selected for stable incorporation of the construct by resistance to the selective pressure of Geneticin (450 μg/ml; Invitrogen Corp., Carlsbad, Calif.). Monoclonal cell lines isolated by minimal dilution were screened for uptake activity of radiolabled methyl α-D-glucopyranoside ([^14C]AMG), a non-metabolizable glucose analogue, and a single clone for each transporter was selected for maximal transporter activity to be used for evaluating the inhibitory activity of the compounds of this invention. In brief, 35,000 cells (CHO-K1/hSGLT-1 or CHO-K1/hSGLT-2) were plated per well of a black tissue culture treated 96-well plate in Ham's F12 media supplemented with 10% heat inactivated FBS and allowed to attached overnight at 37° C. and 5% CO2. Compounds were serially diluted 3-fold in DMSO generating a nine (9) data point dose response curve for each compound. Two replicates were performed per determination. The compounds were then diluted into Uptake Buffer (10 mM Hepes, 5 mM Tris, 137 mM NaCl, 5.4 mM KCl, 2.8 mM CaCl2, and 1.2 mM MgSO4, pH 7.4) with a final DMSO concentration of 0.9% (v/v). After the overnight incubation and prior to compound treatment, the cells were washed twice with Sodium Free Buffer in which the sodium chloride was replaced with 137 mM Choline Chloride, and then incubated with 4 μM [^14C]AMG in Uptake Buffer in the presence or absence of diluted compound. Following a 3-hr incubation at 37° C. and 5% CO2, the uptake reaction was stopped by washing the cells three (3) times with ice-cold D-PBS and then lysing the cells with 50 μl of Microscint-20. After 15-min, the amount of radioactivity that was incorporated into the cells was quantified using a Microbeta reader. Data were fit to an empirical four-parameter model to determine the inhibitor concentration at half-maximal response (IC50). The assay window was established by control wells incubated with [^14C]AMG in the presence or absence of sodium. A dose response curve for phlorizin was generated on every plate as a positive control.

Sequence of hSGLT-2 (P31639 whole entry): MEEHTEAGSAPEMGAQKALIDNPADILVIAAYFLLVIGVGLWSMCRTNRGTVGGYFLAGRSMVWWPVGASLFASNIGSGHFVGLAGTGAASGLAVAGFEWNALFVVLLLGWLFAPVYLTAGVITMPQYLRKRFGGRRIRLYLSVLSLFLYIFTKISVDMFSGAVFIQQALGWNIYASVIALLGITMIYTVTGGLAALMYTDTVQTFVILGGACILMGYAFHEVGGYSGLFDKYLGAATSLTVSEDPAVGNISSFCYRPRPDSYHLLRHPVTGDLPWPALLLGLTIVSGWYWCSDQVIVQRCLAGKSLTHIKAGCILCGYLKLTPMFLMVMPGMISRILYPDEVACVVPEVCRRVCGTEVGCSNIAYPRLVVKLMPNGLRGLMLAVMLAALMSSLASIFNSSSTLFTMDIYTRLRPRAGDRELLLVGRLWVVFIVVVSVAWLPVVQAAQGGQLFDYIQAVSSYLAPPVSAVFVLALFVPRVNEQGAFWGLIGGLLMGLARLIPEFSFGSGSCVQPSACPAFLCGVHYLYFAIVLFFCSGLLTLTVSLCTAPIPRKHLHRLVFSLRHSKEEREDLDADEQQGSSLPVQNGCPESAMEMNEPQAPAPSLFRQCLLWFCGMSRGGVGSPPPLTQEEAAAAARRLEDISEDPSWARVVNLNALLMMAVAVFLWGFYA
Sequence of hSGLT-1 (P13866 whole entry): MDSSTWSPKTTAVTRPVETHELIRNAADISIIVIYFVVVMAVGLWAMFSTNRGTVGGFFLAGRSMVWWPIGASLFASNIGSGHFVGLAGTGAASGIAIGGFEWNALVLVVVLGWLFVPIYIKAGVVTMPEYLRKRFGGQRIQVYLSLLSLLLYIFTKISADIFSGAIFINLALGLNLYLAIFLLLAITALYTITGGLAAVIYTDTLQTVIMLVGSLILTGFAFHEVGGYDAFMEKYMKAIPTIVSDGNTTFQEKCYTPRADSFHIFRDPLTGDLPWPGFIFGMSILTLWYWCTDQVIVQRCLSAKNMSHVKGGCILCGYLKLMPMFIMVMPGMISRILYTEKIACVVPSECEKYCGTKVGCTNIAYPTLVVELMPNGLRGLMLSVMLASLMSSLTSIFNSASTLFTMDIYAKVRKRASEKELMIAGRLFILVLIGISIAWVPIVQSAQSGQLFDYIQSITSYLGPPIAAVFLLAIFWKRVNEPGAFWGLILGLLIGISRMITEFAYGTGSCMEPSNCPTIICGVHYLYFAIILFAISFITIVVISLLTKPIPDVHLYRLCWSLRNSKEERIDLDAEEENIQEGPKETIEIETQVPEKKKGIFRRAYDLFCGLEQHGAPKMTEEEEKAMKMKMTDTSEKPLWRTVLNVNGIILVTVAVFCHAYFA

| IC50 (hSGLT-2) | IC50 (hSGLT-1) | SMILES |
| --- | --- | --- |
| 36.6 nM | > 90000 nM | Cc1cc2nn(Cc3cc([C@@H]4O[C@H](CO)[C@@H](O)[C@H](O)[C@H]4O)ccc3Cl)c(=O)n2cc1Cl [I-12, 6-chloro-2-(2-chloro-5-((2S,3R,4R,5S,6R)-3,4,5-trihydroxy-6-(hydroxymethyl)tetrahydro-2H-pyran-2-yl)benzyl)-7-methyl-[1,2,4]triazolo[4,3-a]pyridin-3(2H)-one] |
| 170 nM | > 90000 nM | O=c1n(Cc2cc([C@@H]3O[C@H](CO)[C@@H](O)[C@H](O)[C@H]3O)ccc2Cl)nc2cc(CO)ccn12 [I-14, 2-(2-chloro-5-((2S,3R,4R,5S,6R)-3,4,5-trihydroxy-6-(hydroxymethyl)tetrahydro-2H-pyran-2-yl)benzyl)-7-(hydroxymethyl)-[1,2,4]triazolo[4,3-a]pyridin-3(2H)-one] |
| 94.8 nM | 45600 nM | O=c1n(Cc2cc([C@@H]3O[C@H](CO)[C@@H](O)[C@H](O)[C@H]3O)ccc2Cl)nc2ccc(Br)cn12 [I-10, 6-bromo-2-(2-chloro-5-((2S,3R,4R,5S,6R)-3,4,5-trihydroxy-6-(hydroxymethyl)tetrahydro-2H-pyran-2-yl)benzyl)-[1,2,4]triazolo[4,3-a]pyridin-3(2H)-one] |
| 145 nM | > 90000 nM | O=c1n(Cc2cc([C@@H]3O[C@H](CO)[C@@H](O)[C@H](O)[C@H]3O)ccc2Cl)nc2ccc(CO)cn12 [I-6, 2-(2-chloro-5-((2S,3R,4R,5S,6R)-3,4,5-trihydroxy-6-(hydroxymethyl)tetrahydro-2H-pyran-2-yl)benzyl)-6-(hydroxymethyl)-[1,2,4]triazolo[4,3-a]pyridin-3(2H)-one] |
| 489 nM | > 90000 nM | CN1C(=O)N(c2ccc(Cc3cc([C@@H]4O[C@H](CO)[C@@H](O)[C@H](O)[C@H]4O)ccc3Cl)cc2)C(C)(C)C1=O [III-5, 1-(4-(2-chloro-5-((2S,3R,4R,5S,6R)-3,4,5-trihydroxy-6-(hydroxymethyl)tetrahydro-2H-pyran-2-yl)benzyl)phenyl)-3,5,5-trimethylimidazolidine-2,4-dione] |
| 463 nM | > 90000 nM | O=c1n(Cc2cc([C@@H]3O[C@H](CO)[C@@H](O)[C@H](O)[C@H]3O)ccc2Cl)nc2ccc(CCO)cn12 [I-15, 2-(2-chloro-5-((2S,3R,4R,5S,6R)-3,4,5-trihydroxy-6-(hydroxymethyl)tetrahydro-2H-pyran-2-yl)benzyl)-6-(2-hydroxyethyl)-[1,2,4]triazolo[4,3-a]pyridin-3(2H)-one] |
| 82.8 nM | 24200 nM | O=c1n(Cc2cc([C@@H]3O[C@H](CO)[C@@H](O)[C@H](O)[C@H]3O)ccc2Cl)nc2ccccn12 [I-1, 2-(2-chloro-5-((2S,3R,4R,5S,6R)-3,4,5-trihydroxy-6-(hydroxymethyl)tetrahydro-2H-pyran-2-yl)benzyl)-[1,2,4]triazolo[4,3-a]pyridin-3(2H)-one] |
| 991 nM | > 90000 nM | O=c1n(Cc2cc([C@@H]3O[C@H](CO)[C@@H](O)[C@H](O)[C@H]3O)ccc2Cl)nc2ccc(C(F)(F)F)cn12 [I-5, 2-(2-chloro-5-((2S,3R,4R,5S,6R)-3,4,5-trihydroxy-6-(hydroxymethyl)tetrahydro-2H-pyran-2-yl)benzyl)-6-(trifluoromethyl)-[1,2,4]triazolo[4,3-a]pyridin-3(2H)-one] |
| 273 nM | 49500 nM | O=c1n(Cc2cc([C@@H]3O[C@H](CO)[C@@H](O)[C@H](O)[C@H]3O)ccc2Cl)nc2cc(C(F)(F)F)ccn12 [I-3, 2-(2-chloro-5-((2S,3R,4R,5S,6R)-3,4,5-trihydroxy-6-(hydroxymethyl)tetrahydro-2H-pyran-2-yl)benzyl)-7-(trifluoromethyl)-[1,2,4]triazolo[4,3-a]pyridin-3(2H)-one] |
| 109 nM |  | Cc1ccn2c(=O)n(Cc3cc([C@@H]4O[C@H](CO)[C@@H](O)[C@H](O)[C@H]4O)ccc3Cl)nc2c1 [I-9, 2-(2-chloro-5-((2S,3R,4R,5S,6R)-3,4,5-trihydroxy-6-(hydroxymethyl)tetrahydro-2H-pyran-2-yl)benzyl)-7-methyl-[1,2,4]triazolo[4,3-a]pyridin-3(2H)-one] |
| 316 nM | > 73200 nM | OC[C@H]1O[C@@H](c2ccc(Cl)c(Cn3nc4ccccn4c3=S)c2)[C@H](O)[C@@H](O)[C@@H]1O [I-7, 2-(2-chloro-5-((2S,3R,4R,5S,6R)-3,4,5-trihydroxy-6-(hydroxymethyl)tetrahydro-2H-pyran-2-yl)benzyl)-[1,2,4]triazolo[4,3-a]pyridine-3(2H)-thione] |
| 542 nM | 71500 nM | O=c1c2ccoc2ccn1Cc1cc([C@@H]2O[C@H](CO)[C@@H](O)[C@H](O)[C@H]2O)ccc1Cl [II-2, 5-(2-chloro-5-((2S,3R,4R,5S,6R)-3,4,5-trihydroxy-6-(hydroxymethyl)tetrahydro-2H-pyran-2-yl)benzyl)furo[3,2-c]pyridin-4(5H)-one] |
| 226 nM | > 90000 nM | OC[C@H]1O[C@@H](c2ccc(Cl)c(Cc3ccc4ncnn4c3)c2)[C@H](O)[C@@H](O)[C@@H]1O [II-1, (2S,3R,4R,5S,6R)-2-(3-([1,2,4]triazolo[1,5-a]pyridin-6-ylmethyl)-4-chlorophenyl)-6-(hydroxymethyl)tetrahydro-2H-pyran-3,4,5-triol] |
| 129 nM | 67400 nM | Cc1ccc2nn(Cc3cc([C@@H]4O[C@H](CO)[C@@H](O)[C@H](O)[C@H]4O)ccc3Cl)c(=O)n2c1 [I-2, 2-(2-chloro-5-((2S,3R,4R,5S,6R)-3,4,5-trihydroxy-6-(hydroxymethyl)tetrahydro-2H-pyran-2-yl)benzyl)-6-methyl-[1,2,4]triazolo[4,3-a]pyridin-3(2H)-one] |
| 11.4 nM | 17500 nM | CCN1C(=O)CN(c2ccc(Cc3cc([C@@H]4O[C@H](CO)[C@@H](O)[C@H](O)[C@H]4O)ccc3Cl)cc2)C1=O [III-2, 1-(4-(2-chloro-5-((2S,3R,4R,5S,6R)-3,4,5-trihydroxy-6-(hydroxymethyl)tetrahydro-2H-pyran-2-yl)benzyl)phenyl)-3-ethylimidazolidine-2,4-dione] |
| 148 nM | 83 nM | CN1CC(=O)N(c2ccc(Cc3cc([C@@H]4O[C@H](CO)[C@@H](O)[C@H](O)[C@H]4O)ccc3Cl)cc2)C1=O [III-3, 3-(4-(2-chloro-5-((2S,3R,4R,5S,6R)-3,4,5-trihydroxy-6-(hydroxymethyl)tetrahydro-2H-pyran-2-yl)benzyl)phenyl)-1-methylimidazolidine-2,4-dione] |
| 222 nM |  | O=c1n(Cc2cc([C@@H]3O[C@H](CO)[C@@H](O)[C@H](O)[C@H]3O)ccc2Cl)nc2ccc(F)cn12 [I-11, 2-(2-chloro-5-((2S,3R,4R,5S,6R)-3,4,5-trihydroxy-6-(hydroxymethyl)tetrahydro-2H-pyran-2-yl)benzyl)-6-fluoro-[1,2,4]triazolo[4,3-a]pyridin-3(2H)-one] |

| SMILES | IC50 (hSGLT-2) | IC50 (hSGLT-1) |
| --- | --- | --- |
| CC(C)N1C(=O)CN(c2ccc(Cc3cc([C@@H]4O[C@H](CO)[C@@H](O)[C@H](O)[C@H]4O)ccc3Cl)cc2)C1=O [III-4, 1-(4-(2-chloro-5-((2S,3R,4R,5S,6R)-3,4,5-trihydroxy-6-(hydroxymethyl)tetrahydro-2H-pyran-2-yl)benzyl)phenyl)-3-isopropylimidazolidine-2,4-dione] | 23.6 nM | 35400 nM |
